The values below come from patent US10875871B2, “Photosensitizer” (Tampereen Korkeakoulusäätiö sr, priority 2016, dated 2020).

One experiment deals with A. baylyi. Nature of the experiment: Antimicrobial inactivation under consumer LED lamp. Type of experiment: cell-based, Acinetobacter baylyi. The note with it: dyed filter paper, 1 h illumination from LED lamp. How it is done:
The antimicrobial efficiency of the dye was confirmed by CFU method using microbes E. coli MG1655 (E. coli Genetic Resources at Yale) and A. baylyi ADP1 (ATCC 33305). […] […] UV-IR radiations were cut off using a combination of KG3 band pass filter (315-750 nm transmittance) and ? c-17 yellow filter (transmittance >485 nm). Similarly, light control samples were prepared by depositing microbial medium over dyed and un-dyed samples by covering microplate with aluminum foil for 1 h at room temperature. After 1 h of illumination or incubation, the microbes were extracted with LB medium (10 g/l tryptone, 5 g/l yeast extract, 5 g/l NaCl) (975 μl) and serial dilutions were made from each extract. The dilutions were then plated on LA agar plates and incubated at 30° C. overnight. The number of colonies grown on the agar plate was counted and CFUs per milliliter were calculated from it.
(§1) The spectrum of light emitted from the lamp prior to the experiments was measured. […] In addition, the power density of the lamp was also measured at different distances. […] The absorptance of phthalocyanine Pc4 and porphyrin ZnPf papers were calculated from reflectance and transmittance measurement of dyed papers using integrating sphere (IS) detector. The absorptance profiles were very similar to the absorbance measurement in solution. […]

The next experiment relates to E. coli. Nature of the experiment: Antimicrobial inactivation under consumer LED lamp. Particulars: dyed filter paper, 1 h illumination from LED lamp. Type of experiment: cell-based, Escherichia coli. How it is done:
The antimicrobial efficiency of the dye was confirmed by CFU method using microbes E. coli MG1655 (E. coli Genetic Resources at Yale) and A. baylyi ADP1 (ATCC 33305). […] The microplate was illuminated in the solar simulator for 1 hour. UV-IR radiations were cut off using a combination of KG3 band pass filter (315-750 nm transmittance) and ? c-17 yellow filter (transmittance >485 nm). Similarly, light control samples were prepared by depositing microbial medium over dyed and un-dyed samples by covering microplate with aluminum foil for 1 h at room temperature. After 1 h of illumination or incubation, the microbes were extracted with LB medium (10 g/l tryptone, 5 g/l yeast extract, 5 g/l NaCl) (975 μl) and serial dilutions were made from each extract. The dilutions were then plated on LA agar plates and incubated at 30° C. overnight. The number of colonies grown on the agar plate was counted and CFUs per milliliter were calculated from it.
as §1

On to “{4,4′,4″,4″-(29H,31H-phthalocyanine-1(4),8(11),15(18),22(25)-tetrayl-κ 4N29,N30,N31,N32)tetrakis [1-methylpyridiniumato(2-)]}zinc(4+) tetraiodide [Pc4]”, for which the inactivation of microorganisms entry in the experiment with A. baylyi and in the experiment with E. coli was “complete inactivation” in each case.
